“Also recorded” adds a separate entry of the source.
Assays:
[1] = test system: colon, pancreatic and bladder cancer cells; test: hexoseaminidase cell proliferation assay, summaries over cell lines; assay type: cell-based; settings: dose and time dependent
Protocol: Water solubility studies were performed with the CD/analog complexes. […] The observed IC50 value of THBCD at 48 h is below 10 μM in all the colon, pancreatic and bladder cancer cells.
(§1) Using hexoseaminidase assay, we determined the effect of the compounds on cell proliferation. […] The IC50 value at 48 hours is below 10 μM in all the cancer cell lines.
(§2) Using hexoseaminidase assay, we determined the effect of the compounds on cell proliferation. […] The MRL16 IC50 value at 48 hours is below 0.3 μM in Colon cancer cell lines. […] Overall, the analogs can be used as chemotherapeutic agents against colon and pancreatic cancer.

[2] = test system: MiaPaCa-2 pancreatic cancer cells; test: hexoseaminidase cell proliferation assay, MiaPaCa-2; assay type: cell-based
Protocol: as §1, §2

[3] = test system: CAMKII; test: kinase activity against CAMKII; assay type: biochemical
[4] = test system: SW480 cells; test: cell cycle analysis, SW480; assay type: cell-based; settings: SW480, Table 3
Protocol: The analogs were tested to determine the ability induce death of colon cancer cells.

[5] = test system: 253JBV bladder cancer cells; test: hexoseaminidase cell proliferation assay, 253JBV; assay type: cell-based
Protocol: as §1

[6] = test system: Notch-1, Jagged-1, Hes-1; test: Notch signaling-related proteins; assay type: cell-based; settings: two colon cancer cells
Source text: Notch signaling also plays a fundamental role in the differentiation and maintenance of stem cells. […] We next determined the effect of THB or THBCD on Notch signaling-related proteins in the two colon cancer cells.

[7] = test system: KU7 bladder cancer cells; test: hexoseaminidase cell proliferation assay, KU7; assay type: cell-based
Protocol: as §1

[8] = test system: DCLK1, LGR5 and CD44; test: stem cell marker protein expression; assay type: cell-based; settings: HCT116 and SW480 cells
Protocol: The analogs were also tested with doublecortin and CaM kinase-like-1 (DCLK1), a microtubule-associated kinase expressed in postmitotic neurons and is an intestinal stem cell marker that is expressed in colon adenocarcinoma. DCLK1 distinguishes between tumor and normal stem cells in the intestine and could be a therapeutic target for colon cancer.

[9] = test system: SW480 cells; test: colony formation, SW480; assay type: cell-based
[10] = test system: Mst1/2, Lats1/2, YAP1, TEAD1, 2, and 4; test: Hippo signaling-related proteins; assay type: cell-based; settings: HCT116 and SW480 cell lines
Source text: The Hippo pathway regulates stem cell proliferation, self-renewal, and differentiation. YAP1 is highly expressed gene in stem cells. […] We next determined the effect of THB or THBCD on Hippo signaling-related proteins in the two colon cancer cells.

[11] = test system: Presenilin, Nicastrin, APH1 and PEN2; test: γ-secretase complex protein expression; assay type: cell-based
Source text: The γ-secretase enzyme complex is made up of four proteins presenilin, nicastrin, APH-1 (anterior pharynx-defective 1), and PEN-2 (presenilin enhancer 2), all of which are essential for activity. Cleavage by the γ-secretase complex releases the Notch intracellular domain (NICD), which in turn translocates into the nucleus of the cells, interacts with the C promoter-binding factor-1 (CBF1) transcriptional cofactor and transactivates target genes, such as those in the hairy and enhancer of split (Hes) and Hes related with YRPW motif (Hey) family proteins. We determined whether the γ-secretase complex comprising of Presenilin, Nicastrin, APH1 and PEN2 is affected.

[12] = test system: HCT116 colon cancer cells; test: hexoseaminidase cell proliferation assay, HCT116; assay type: cell-based
Source text: (§3) Using hexoseaminidase assay, we determined the effect of the compounds on cell proliferation. […]
(§4) Using hexoseaminidase assay, we determined the effect of the compounds on cell proliferation. […] […] […] Overall, the analogs can be used as chemotherapeutic agents against colon and pancreatic cancer.

[13] = test system: HCT116 cells; test: colony formation, HCT116; assay type: cell-based
[14] = test system: cancer stem cells; test: colonosphere formation; assay type: cell-based
Protocol: It was also determined the analogs inhibit colonosphere formation from cancer stem cells. […] The columns are 0, 10, 25, and 50 micromolar concentrations of the compounds labeled by rows.
The effect of the compounds on colonosphere formation was determined. […] Overall, the analogs have shown they can be used as chemotherapeutic agents against colon, pancreatic and bladder cancer.

[15] = biological target: T1, DCLK1 (Homo sapiens, UniProt O15075); test: in vitro kinase assay using recombinant DCLK1; assay type: biochemical; settings: recombinant DCLK1, dose dependent
T1 construct: we performed an in vitro kinase assay using recombinant DCLK1
Source text: DCLK1 encodes a calmodulin-like kinase domain, and has homology to calmodulin kinases CAMKII and CAMKIV. We performed homology modeling and determined that THB can interact with the kinase domain with binding energy of −5.94. Furthermore we performed an in vitro kinase assay using recombinant DCLK1. […] Furthermore, THB and THBCD inhibit cancer stem cell marker DCLK1 expression in the xenograft tumors in both immunohistochemistry and western blot analysis (data not shown).

[16] = test system: HCT116 cells; test: cell cycle analysis, HCT116; assay type: cell-based; settings: HCT116, Table 3
[17] = test system: SW480 colon cancer cells; test: hexoseaminidase cell proliferation assay, SW480; assay type: cell-based
Source text: as §3, §4

T1 sequence (O15075 whole entry): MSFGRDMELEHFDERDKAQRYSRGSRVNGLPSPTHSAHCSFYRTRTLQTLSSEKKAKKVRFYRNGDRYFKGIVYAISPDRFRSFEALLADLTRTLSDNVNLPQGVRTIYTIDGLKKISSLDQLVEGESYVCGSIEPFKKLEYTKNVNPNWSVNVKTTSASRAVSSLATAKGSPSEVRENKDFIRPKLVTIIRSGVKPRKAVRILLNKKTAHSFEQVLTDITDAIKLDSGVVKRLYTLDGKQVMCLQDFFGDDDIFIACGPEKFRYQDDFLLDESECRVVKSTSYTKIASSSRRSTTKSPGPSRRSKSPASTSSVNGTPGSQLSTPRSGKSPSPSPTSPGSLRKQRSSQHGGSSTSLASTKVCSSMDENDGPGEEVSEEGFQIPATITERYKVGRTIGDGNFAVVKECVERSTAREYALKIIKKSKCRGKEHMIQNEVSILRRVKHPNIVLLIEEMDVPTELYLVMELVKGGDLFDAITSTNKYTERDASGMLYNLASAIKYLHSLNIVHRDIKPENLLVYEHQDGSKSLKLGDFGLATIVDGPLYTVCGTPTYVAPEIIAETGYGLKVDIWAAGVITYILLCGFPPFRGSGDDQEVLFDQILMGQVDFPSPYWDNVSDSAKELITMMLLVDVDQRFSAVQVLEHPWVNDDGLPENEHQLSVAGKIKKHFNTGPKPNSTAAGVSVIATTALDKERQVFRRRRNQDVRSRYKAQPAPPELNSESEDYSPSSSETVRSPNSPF

**Q.** For `O=C(N/N=C/c1ccc(O)c(O)c1O)c1cc2ccccc2cc1O` [MRL THB], which “inhibition of cell proliferation (in words)” value [1] is on record?
**A.** potent inhibitor; also recorded: inhibit proliferation

**Q.** What about the IC50 ([2]; MiaPaCa-2, 24 h) of the same compound?
**A.** > 50 µM

**Q.** And the IC50 ([2]; MiaPaCa-2, 48 h)?
**A.** 10 µM

**Q.** And the IC50 ([2]; MiaPaCa-2, 72 h)?
**A.** 10 µM

**Q.** And the IC50 ([2]; MiaPaCa-2, 72 h, listed as THB)?
**A.** 9 µM

**Q.** And the “fold less activity against CAMKII than DCLK1” value [3]?
**A.** 100 fold

**Q.** What about the “G0/G1 (%)” value [4] of the same compound?
**A.** 39.5%

**Q.** What about the “G2M (%)” value [4] of the same compound?
**A.** 26.8%

**Q.** And the “S (%)” value [4]?
**A.** 21.8%

**Q.** And the “SubG0 Dead Cells (%)” value [4]?
**A.** 10.8%

**Q.** What about the IC50 ([5]; 48 h) of the same compound?
**A.** 38 µM

**Q.** What about the IC50 ([5]; 72 h) of the same compound?
**A.** 15 µM

**Q.** What about the Hes-1 expression [6] of the same compound?
**A.** reduced expression

**Q.** What about the “Notch-1 and Jagged-1” value [6] of the same compound?
**A.** downregulated

**Q.** What about the IC50 ([7]; KU7, 24 h) of the same compound?
**A.** 22 µM

**Q.** What about the IC50 ([7]; KU7, 48 h) of the same compound?
**A.** 8 µM

**Q.** What about the IC50 ([7]; KU7, 72 h) of the same compound?
**A.** 6 µM

**Q.** What about the “DCLK1, LGR5 and CD44 expression” value [8] of the same compound?
**A.** significantly inhibited

**Q.** And the colony formation [9]?
**A.** significantly inhibited colony formation

**Q.** What about the “expression of TEAD1, 2, and 4” value [10] of the same compound?
**A.** significant downregulation

**Q.** And the “phosphorylation of Mst1/2, Lats1/2 and YAP1” value [10]?
**A.** significantly downregulated

**Q.** And the “expression of Presenilin, Nicastrin, APH1 and PEN2” value [11]?
**A.** downregulation

**Q.** What about the IC50 ([12]; HCT116, 24 h) of the same compound?
**A.** > 50 µM

**Q.** What about the IC50 ([12]; HCT116, 48 h) of the same compound?
**A.** 10 µM

**Q.** What about the IC50 ([12]; HCT116, 72 h) of the same compound?
**A.** 7.5 µM

**Q.** And the IC50 ([12]; HCT116, 72 h, listed as THB)?
**A.** 8 µM

**Q.** And the colony formation [13]?
**A.** significantly inhibited colony formation

**Q.** And the colonosphere formation [14]?
**A.** significantly inhibited colonosphere formation

**Q.** And the DCLK1 kinase activity [15]?
**A.** significantly reduced

**Q.** What about the “G0/G1 (%)” value [16] of the same compound?
**A.** 17.2%

**Q.** What about the “G2M (%)” value [16] of the same compound?
**A.** 19.7%

**Q.** And the “S (%)” value [16]?
**A.** 28.1%

**Q.** What about the “SubG0 Dead Cells (%)” value [16] of the same compound?
**A.** 29.0%

**Q.** What about the IC50 ([17]; SW480, 24 h) of the same compound?
**A.** > 50 µM

**Q.** And the IC50 ([17]; SW480, 48 h)?
**A.** 10 µM

**Q.** And the IC50 ([17]; SW480, 72 h)?
**A.** 10 µM

**Q.** What about the IC50 ([17]; SW480, 72 h, listed as THB) of the same compound?
**A.** 9 µM

Source: patent US20200102264A1, “MARMELIN ANALOGS AND METHODS OF USE IN CANCER TREATMENT” (THE UNIVERSITY OF KANSAS, priority 2014, published 2020)
